Experimental data reported in patent US6369088B2, “Substituted 3-phenyl-5-alkoxy-1,3,4-oxadiazol-2-ones, their preparation and their use as pharmaceuticals” (Aventis Pharma Deutschland GmbH, priority 2000, dated 2002).

How the values were obtained:
[1] = target: T1, hormone-sensitive lipase (HSL) (Rattus norvegicus, UniProt P15304); assay: HSL enzyme assay: [3H]trioleoylglycerol hydrolysis by partially purified HSL; format: biochemical; details: partially purified HSL from rat fat cells; [3H]trioleoylglycerol substrate; 37° C., 30 min; read-out: IC50
T1 construct: Isolated rat fat cells were obtained from epididymal adipose tissue; from tissue; host or cells: rat epididymal adipose tissue (isolated fat cells, Wistar rats)
T1 sequence (P15304 1-768 isoform P15304-2): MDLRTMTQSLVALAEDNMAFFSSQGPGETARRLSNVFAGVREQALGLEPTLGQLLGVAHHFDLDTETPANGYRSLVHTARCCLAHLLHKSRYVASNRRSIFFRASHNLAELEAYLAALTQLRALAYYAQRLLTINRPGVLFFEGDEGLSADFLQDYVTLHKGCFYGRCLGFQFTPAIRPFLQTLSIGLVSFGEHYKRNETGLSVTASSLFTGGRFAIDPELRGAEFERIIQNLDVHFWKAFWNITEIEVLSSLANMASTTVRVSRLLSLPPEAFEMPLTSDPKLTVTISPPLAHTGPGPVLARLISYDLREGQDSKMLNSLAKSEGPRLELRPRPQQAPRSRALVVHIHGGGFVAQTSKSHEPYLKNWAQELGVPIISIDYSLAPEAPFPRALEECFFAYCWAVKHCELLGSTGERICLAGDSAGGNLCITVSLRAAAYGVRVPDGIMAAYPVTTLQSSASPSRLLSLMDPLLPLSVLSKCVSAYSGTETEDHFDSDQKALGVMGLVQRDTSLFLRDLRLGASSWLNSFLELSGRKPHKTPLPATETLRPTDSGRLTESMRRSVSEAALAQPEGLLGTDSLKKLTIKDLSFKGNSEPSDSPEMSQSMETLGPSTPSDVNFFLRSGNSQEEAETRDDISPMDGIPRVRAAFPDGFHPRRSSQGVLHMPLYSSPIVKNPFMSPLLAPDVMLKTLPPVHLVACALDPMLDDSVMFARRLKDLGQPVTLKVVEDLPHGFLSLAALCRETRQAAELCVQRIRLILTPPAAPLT
Protocol: The effect of the compounds of the invention on HSL was tested using the following enzyme assay system:
Preparation of Partially Purified HSL:
The fat cells from 10 rats were washed three times by flotation with 50 ml each time of homogenization buffer ([…] tris/HCl, pH 7.4, 0.25 M sucrose, 1 mM EDTA, 1 mM DTT, 10 μg/ml leupeptin, 10 μg/ml antipain, 20 μg/ml pepstatin) and finally taken up in 10 ml of homogenization buffer. The fat cells were homogenized in a Teflon-in-glass homogenizer (Braun-Melsungen) by 10 strokes at 1500 rpm and 15° C. The homogenate was centrifuged (Sorvall SM24 tubes, 5000 rpm, 10 min, 4° C.). The subnatant between the fatty layer at the top and the pellet was removed and the centrifugation was repeated. The subnatant resulting therefrom was recentrifuged (Sorvall SM24 tubes, 20000 rpm, 45 min, 4° C.). […] After the mixture had been incubated at 4° C. for 60 min (shaking at 15-min intervals), it was centrifuged (Sorvall SM24 tubes, 3000 rpm, 10 min, 4° C.). The supernatant was adjusted to pH 5.2 by adding glacial acetic acid and incubated at 4° C. for 30 min. The precipitates were collected by centrifugation (Sorvall SS34, 12000 rpm, 10 min, 4° C.) and suspended in 2.5 ml of 20 mM tris/HCl, pH 7.0,1 mM EDTA, 65 mM NaCl, 13% sucrose, 1 mM DTT, 10 μg/ml leupeptin/pepstatin/antipain. The suspension was dialyzed against 25 mM tris/HCl, pH 7.4, 50% glycerol, 1 mM DTT, 10 μg/ml leupeptin, pepstatin, antipain at 4° C. overnight and then loaded onto a hydroxy apatite column (0.1 g per 1 ml of suspension, equilibrated with 10 mM potassium phosphate, pH 7.0, 30% glycerol, 1 mM DTT). The column was washed with four volumes of equilibration buffer at a flow rate of 20 to 30 ml/h. The HSL was eluted with one volume of equilibration buffer containing 0.5 M potassium phosphate, and then dialyzed (see above) and concentrated 5- to 10-fold by ultrafiltration (Amicon Diaflo PM 10 filter) at 4° C. The partially purified HSL can be stored at −70° C. for 4 to 6 weeks.
To prepare the substrate, 25-50 μCi of [^3H]trioleoylglycerol (in toluene), 6.8 μmol of unlabeled trioleoylglycerol and 0.6 mg of phospholipids (phosphatidylcholine/phosphatidylinositol 3:1 w/v) were mixed, dried with N2 and then taken up in 2 ml of 0.1 M KPi (pH 7.0) by ultrasonic treatment (Branson 250, microtip, setting 1-2, 2×1 min at 1-min intervals). After addition of 1 ml of KPi and renewed ultrasonic treatment (4×30 sec on ice in 30-sec intervals), 1 ml of 20% BSA (in KPi) was added (final concentration of trioleoylglycerol 1.7 mM). For the reaction, 100 μl of substrate solution were pipetted into 100 μl of HSL solution (HSL prepared as above, diluted in 20 mM KPi, pH 7.0, 1 mM EDTA, 1 mM DTT, 0.02% BSA, 20 μg/ml pepstatin, 10 μg/ml leupeptin) and incubated at 37° C. for 30 min. […] After phase separation, one equivalent of the upper phase (1 ml) was removed and the radioactivity was determined by liquid scintillation measurement.
Substances were normally tested in four independent mixtures. The inhibition of the HSL enzymatic activity by a test substance was determined by comparison with an uninhibited control reaction. The IC50 was calculated via an inhibition plot with at least 10 concentrations of the test substance. The data was analyzed using the software package GRAPHIT, Elsevier-BIOSOFT.

Row | IC50 [1] [nM] | melting point [°C] | Compound
1 | 1000 | 112 | COc1nn(-c2ccc(NC(=O)OCc3ccccc3)cc2C)c(=O)o1 [Example 65, 5-Methoxy-3-(2-methyl-4-benzyloxycarbonylaminophenyl)-3H-(1,3,4)oxadiazol-2-one]
2 | 20 | 135 | CCCCCCCc1ccc(C(=O)Nc2ccc(-n3nc(OC)oc3=O)c(Cl)c2)cc1 [Example 71, 5-Methoxy-3-(2-chloro-4-(4-heptylbenzoylamino)phenyl)-3H-(1,3,4)oxadiazol-2-one]
3 | 40 | 94 | CCOc1nn(-c2ccc(NC(=O)OCc3ccccc3)c(C)c2)c(=O)o1 [Example 74, 5-Ethoxy-3-(3-methyl-4-benzyloxycarbonylaminophenyl)-3H-(1,3,4)oxadiazol-2-one]
